In US11999727B2 (Tango Therapeutics, Inc., priority 2020, dated 2024):

Columns and labels:
[1] = test system: HAP1 MTAP-intact cell line; assay: SDMA in-cell western assay, HAP1 MTAP-intact; format: cell-based; settings: Homo sapiens, HAP1, SDMA in-cell western, HAP1 MTAP-intact; read-out: MTAP HAP1 intact IC50
Method in brief: (§1)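 Isogenic HAP1 pair: the MTAP-intact line expresses endogenous MTAP, and the deleted line is MTAP-null. Symmetric dimethylarginine was detected by in-cell western and IC50 values derived for each line.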

[2] = test system: HAP1 MTAP-deleted cell line; assay: Viability assay, MTAP-deleted cell line; format: cell-based; settings: Homo sapiens, HAP1, viability IC50, MTAP-deleted cell line; read-out: HAP1 MTAP deleted viability
Excerpt: Table 1 additionally indicates IC50 values in a viability assay for the MTAP-deleted cell line (column 10), indicating the effect of treatment with compound on cell survival.

[3] = test system: HAP1 MTAP-deleted cell line; assay: SDMA in-cell western assay, HAP1 MTAP-deleted; format: cell-based; settings: for IC50: Homo sapiens, HAP1, SDMA in-cell western, HAP1 MTAP-deleted, read-out: HAP 1 MTAP deleted IC50; for MTAP intact/deleted ratio: IC50 ratio HAP1 MTAP-intact / HAP1 MTAP-deleted, SDMA in-cell western
Method in brief: as §1

[4] = target: T1, PRMT5 (Homo sapiens, UniProt O14744); assay: PRMT5 biochemical IC50 assay with MTA as cofactor; settings: PRMT5, MTA as cofactor; read-out: MTA IC50
T1 construct: purchased Viva (custom protein)

[5] = target: T1, PRMT5; assay: PRMT5 biochemical IC50 assay with SAM as cofactor; settings: PRMT5, SAM as cofactor; read-out: SAM IC50
[6] = target: T1, PRMT5; assay: PRMT5 biochemical IC50 assay with no cofactor; settings: PRMT5, no cofactor; read-out: No Cofactor/rel IC50
Excerpt: Table 1 indicates IC50 values (μM) against PRMT5 for exemplary compounds in the presence of SAM as cofactor, with no cofactor, and with MTA as cofactor, respectively (columns 4-6). […] Ki values can be calculated from the IC50 values as described in the Examples section. As detailed in the Examples section, for the assay performed in the presence of SAM, IC50=Ki×1.5 (Ki=IC50/1.5).

T1 sequence (O14744 whole entry): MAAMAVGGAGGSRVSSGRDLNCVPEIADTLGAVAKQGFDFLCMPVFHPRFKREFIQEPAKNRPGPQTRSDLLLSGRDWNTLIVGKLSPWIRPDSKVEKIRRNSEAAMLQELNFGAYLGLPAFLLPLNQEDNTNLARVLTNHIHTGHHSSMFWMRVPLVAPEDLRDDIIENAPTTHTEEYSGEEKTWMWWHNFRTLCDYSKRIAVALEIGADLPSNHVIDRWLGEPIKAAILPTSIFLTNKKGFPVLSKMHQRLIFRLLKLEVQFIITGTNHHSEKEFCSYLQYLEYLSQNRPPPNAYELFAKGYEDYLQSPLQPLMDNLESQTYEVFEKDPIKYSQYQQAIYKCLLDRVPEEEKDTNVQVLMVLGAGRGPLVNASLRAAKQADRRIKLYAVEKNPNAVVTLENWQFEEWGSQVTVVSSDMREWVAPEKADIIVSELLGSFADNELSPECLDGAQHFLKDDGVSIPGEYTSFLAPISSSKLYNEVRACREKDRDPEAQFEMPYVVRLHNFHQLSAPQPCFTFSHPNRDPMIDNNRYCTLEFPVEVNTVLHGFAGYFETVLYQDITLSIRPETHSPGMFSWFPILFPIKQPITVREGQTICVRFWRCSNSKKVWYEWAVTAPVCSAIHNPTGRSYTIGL
T1 sequence (Q9BQA1 whole entry partner): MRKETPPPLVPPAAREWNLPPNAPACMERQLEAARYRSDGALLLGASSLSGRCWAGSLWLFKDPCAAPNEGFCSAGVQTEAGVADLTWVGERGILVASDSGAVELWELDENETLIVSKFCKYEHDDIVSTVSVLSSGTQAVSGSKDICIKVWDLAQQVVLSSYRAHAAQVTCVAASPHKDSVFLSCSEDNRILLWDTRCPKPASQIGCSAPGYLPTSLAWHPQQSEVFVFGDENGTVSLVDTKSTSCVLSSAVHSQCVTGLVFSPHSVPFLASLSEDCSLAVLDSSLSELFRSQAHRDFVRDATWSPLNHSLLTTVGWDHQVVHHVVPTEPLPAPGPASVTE

Cc1cc(NC(=O)C(=O)N2C[C@H](C)CC[C@H]2c2ccc(-c3ccn[nH]3)s2)cnc1N (racemic) [Compound 556, N-(6-amino-5-methyl-3-pyridyl)-2-[(2R,5S)-5-methyl-2-[5-(1H-pyrazol-5-yl)-2-thienyl]-1-piperidyl]-2-oxo-acetamide]
IC50 [1]: 100 to 1000 nM
IC50 [2]: < 1000 nM
IC50 [3]: < 100 nM
MTAP intact/deleted ratio [3]: A (an IC50 ratio greater than or equal to 10 fold)
IC50 [4]: 50 to 500 nM
IC50 [5]: 50 to 500 nM
IC50 [6]: 50 to 500 nM

Cc1cncc(NC(=O)C(=O)N2C[C@H](C)CC[C@H]2c2ccc(O)cc2)c1 (racemic) [Compound 557, rac-2-((2R,5S)-2-(4-hydroxyphenyl)-5-methylpiperidin-1-yl)-N-(5-methylpyridin-3-yl)-2-oxoacetamide]
IC50 [1]: > 1000 nM
IC50 [2]: > 10000 nM
IC50 [3]: 100 to 1000 nM
MTAP intact/deleted ratio [3]: A (an IC50 ratio greater than or equal to 10 fold)
IC50 [4]: 50 to 500 nM
IC50 [5]: 50 to 500 nM
IC50 [6]: 50 to 500 nM

COc1ccccc1[C@@H]1CC[C@@H](C)CN1C(=O)C(=O)Nc1cncc(C(N)=O)c1 (racemic) [Compound 558, 5-[[2-[(2S,5R)-2-(2-Methoxyphenyl)-5-methyl-1-piperidyl]-2-oxo-acetyl]amino]pyridine-3-carboxamide]
IC50 [1]: > 1000 nM
IC50 [2]: > 10000 nM
IC50 [3]: 100 to 1000 nM
MTAP intact/deleted ratio [3]: A (an IC50 ratio greater than or equal to 10 fold)
IC50 [4]: 50 to 500 nM
IC50 [5]: 50 to 500 nM
IC50 [6]: > 500 nM

C[C@@H]1CC[C@@H](c2cc(F)c(O)c(F)c2)N(C(=O)C(=O)Nc2cncc(C(N)=O)c2)C1 (racemic) [Compound 560, rac-5-[[2-[(2R,5S)-2-(3,5-difluoro-4-hydroxy-phenyl)-5-methyl-1-piperidyl]-2-oxo-acetyl]amino]pyridine-3-carboxamide]
IC50 [1]: > 1000 nM
IC50 [2]: > 10000 nM
IC50 [3]: 100 to 1000 nM
MTAP intact/deleted ratio [3]: A (an IC50 ratio greater than or equal to 10 fold)
IC50 [4]: 50 to 500 nM
IC50 [5]: 50 to 500 nM
IC50 [6]: 50 to 500 nM

CNc1ccc([C@@H]2CCC[C@H](C)N2C(=O)C(=O)Nc2cncc(C(N)=O)c2)cn1 (racemic) [Compound 561, 5-[[2-[(2S,6S)-2-methyl-6-[6-(methylamino)-3-pyridyl]-1-piperidyl]-2-oxo-acetyl]amino]pyridine-3-carboxamide]
IC50 [1]: > 1000 nM
IC50 [2]: > 10000 nM
IC50 [3]: 100 to 1000 nM
MTAP intact/deleted ratio [3]: A (an IC50 ratio greater than or equal to 10 fold)
IC50 [4]: 50 to 500 nM
IC50 [5]: 50 to 500 nM
IC50 [6]: 50 to 500 nM

Cc1ccc([C@@H]2CC[C@@H](C)CN2C(=O)C(=O)Nc2cnc(N)c(C)c2)cc1O (racemic) [Compound 580, N-(6-amino-5-methylpyridin-3-yl)-2-(2-(3-hydroxy-4-methylphenyl)-5-methylpiperidin-1-yl)-2-oxoacetamide]
IC50 [1]: 100 to 1000 nM
IC50 [2]: < 1000 nM
IC50 [3]: < 100 nM
MTAP intact/deleted ratio [3]: A (an IC50 ratio greater than or equal to 10 fold)
IC50 [4]: 50 to 500 nM
IC50 [5]: 50 to 500 nM
IC50 [6]: 50 to 500 nM

Cc1cc(NC(=O)C(=O)N2C[C@H](C)CC[C@H]2c2ccc3c(c2)C(=O)NC3)cnc1N (racemic) [Compound 582, N-(6-amino-5-methyl-3-pyridyl)-2-[(2R,5S)-5-methyl-2-(3-oxoisoindolin-5-yl)-1-piperidyl]-2-oxo-acetamide]
IC50 [1]: 100 to 1000 nM
IC50 [2]: 1000 to 10000 nM
IC50 [3]: < 100 nM
MTAP intact/deleted ratio [3]: A (an IC50 ratio greater than or equal to 10 fold)
IC50 [4]: 50 to 500 nM
IC50 [5]: 50 to 500 nM
IC50 [6]: 50 to 500 nM

C[C@@H]1CC[C@H](c2ccccn2)N(C(=O)C(=O)Nc2cncc(C(N)=O)c2)C1 (racemic) [Compound 584, 5-[[2-[(2R,5R)-5-methyl-2-(2-pyridyl)-1-piperidyl]-2-oxo-acetyl]amino]pyridine-3-carboxamide]
IC50 [1]: > 1000 nM
IC50 [2]: > 10000 nM
IC50 [3]: 100 to 1000 nM
MTAP intact/deleted ratio [3]: A (an IC50 ratio greater than or equal to 10 fold)
IC50 [4]: 50 to 500 nM
IC50 [5]: > 500 nM
IC50 [6]: > 500 nM

C[C@@H]1CC[C@@H](c2ccccc2F)N(C(=O)C(=O)Nc2cncc(C(N)=O)c2)C1 (racemic) [Compound 595, 5-[[2-[(2R,5S)-2-(2-Fluorophenyl)-5-methyl-1-piperidyl]-2-oxo-acetyl]amino]pyridine-3-carboxamide]
IC50 [1]: > 1000 nM
IC50 [2]: 1000 to 10000 nM
IC50 [3]: < 100 nM
MTAP intact/deleted ratio [3]: A (an IC50 ratio greater than or equal to 10 fold)
IC50 [4]: 50 to 500 nM
IC50 [5]: 50 to 500 nM
IC50 [6]: 50 to 500 nM

Cc1cc(NC(=O)C(=O)N2C[C@H](C)CC[C@H]2c2cccc(Br)c2)cnc1N (racemic) [Compound 600, N-(6-amino-5-methyl-3-pyridyl)-2-[(2S,5R)-2-(3-bromophenyl)-5-methyl-1-piperidyl]-2-oxo-acetamide]
IC50 [1]: 100 to 1000 nM
IC50 [2]: < 1000 nM
IC50 [3]: < 100 nM
MTAP intact/deleted ratio [3]: A (an IC50 ratio greater than or equal to 10 fold)
IC50 [4]: 50 to 500 nM
IC50 [5]: 50 to 500 nM
IC50 [6]: 50 to 500 nM

C[C@@H]1CC[C@@H](c2cccc(Br)c2)N(C(=O)C(=O)Nc2cncc(C(N)=O)c2)C1 (racemic) [Compound 601, 5-(2-(2-(3-bromophenyl)-5-methylpiperidin-1-yl)-2-oxoacetamido)nicotinamide]
IC50 [1]: > 1000 nM
IC50 [2]: 1000 to 10000 nM
IC50 [3]: < 100 nM
MTAP intact/deleted ratio [3]: A (an IC50 ratio greater than or equal to 10 fold)
IC50 [4]: 50 to 500 nM
IC50 [5]: 50 to 500 nM
IC50 [6]: 50 to 500 nM

C[C@@H]1CC[C@@H](c2ccc(O)c(C(C)(C)C)c2)N(C(=O)C(=O)Nc2cncc(C(N)=O)c2)C1 (racemic) [Compound 610, 5-[[2-[(2R,5S)-2-(3-tert-Butyl-4-hydroxy-phenyl)-5-methyl-1-piperidyl]-2-oxo-acetyl]amino]pyridine-3-carboxamide]
IC50 [1]: > 1000 nM
IC50 [2]: 1000 to 10000 nM
IC50 [3]: < 100 nM
MTAP intact/deleted ratio [3]: A (an IC50 ratio greater than or equal to 10 fold)
IC50 [4]: 50 to 500 nM
IC50 [5]: 50 to 500 nM
IC50 [6]: 50 to 500 nM

Cc1cc(NC(=O)C(=O)N2C[C@H](C)CC[C@H]2C2CCN(C)CC2)cnc1N (racemic) [Compound 614, N-(6-amino-5-methyl-3-pyridyl)-2-[(2R,5S)-5-methyl-2-(1-methyl-4-piperidyl)-1-piperidyl]-2-oxo-acetamide]
IC50 [1]: > 1000 nM
IC50 [2]: > 10000 nM
IC50 [3]: > 1000 nM
MTAP intact/deleted ratio [3]: C (an IC50 ratio of less than 3 fold)
IC50 [4]: > 500 nM
IC50 [5]: > 500 nM
IC50 [6]: > 500 nM

Cc1ncc(NC(=O)C(=O)N2C[C@H](C)CC[C@H]2c2ccc(F)cc2)cc1Cl (racemic) [Compound 622, N-(5-chloro-6-methyl-3-pyridyl)-2-[(2S,5R)-2-(4-fluorophenyl)-5-methyl-1-piperidyl]-2-oxo-acetamide]
IC50 [1]: > 1000 nM
IC50 [2]: > 10000 nM
IC50 [3]: > 1000 nM
MTAP intact/deleted ratio [3]: B (an IC50 ratio greater than or equal to 3 fold but lower than 10 fold)
IC50 [4]: 50 to 500 nM
IC50 [5]: 50 to 500 nM
IC50 [6]: 50 to 500 nM
